# Measured values published in patent US4198502A, “Aminopyrrole derivatives” (Gruppo Lepetit S.p.A., priority 1973, dated 1980).
# Legend:
# [1] = acute toxicity (LD50), procedure of Lichtfield and Wilcoxon; settings: mouse, in vivo, po, mice
# Protocol: (§1) An aspect of the anti-inflammatory utility was evidenced by means of the carrageenin-induced edema test in rats, which was performed according to the methodology described by C. A. Winter et al., Proc. Soc. Exptl. Biol. Med., 111, 544, 1962. […] It is also to be noted that the toxicities of the aminopyrrole derivatives which are the object of the present invention are very low; with few exceptions, their LD50 values are always higher than 1000 mg/kg p.o. in mice. Toxicities were determined according to the procedure described by Lichtfield and Wilcoxon, J. Pharm. Exp. Therm., 96, 99, 1949.
# [2] = test system: carrageenin-induced edema; experiment: carrageenin-induced edema test in rats (anti-inflammatory); type: in vivo; settings: Rattus norvegicus, po, read-out: % Decrease of the induced edema; for inhibition in vivo at 5 mg/kg: 5 mg/kg p.o.; for inhibition in vivo at 10 mg/kg: 10 mg/kg p.o.; for inhibition in vivo at 20 mg/kg: 20 mg/kg p.o.; for inhibition in vivo at 50 mg/kg: 50 mg/kg p.o.; for inhibition in vivo at 100 mg/kg: 100 mg/kg p.o.; for inhibition in vivo at 200 mg/kg: 200 mg/kg p.o.
# Protocol: as §1
# The following Table summarizes the aforementioned anti-inflammatory action and LD50 values.
# [3] = CNS-depressant utility, general method of S. Irwin; settings: in vivo
# Excerpt: This characteristic was investigated according to the general method proposed by S. Irwin, Psychopharmacologia (Berl.), 13, 222, 1968. […] This is undoubtedly another vary favorable characteristic of the inventive compounds, as a certain sedative and myorelaxing effect is useful in patients affected by severe inflammatory disease.
SMILES,LD50 [1] [mg/kg],inhibition in vivo at 5 mg/kg [2] [%],inhibition in vivo at 10 mg/kg [2] [%],inhibition in vivo at 20 mg/kg [2] [%],inhibition in vivo at 50 mg/kg [2] [%],inhibition in vivo at 100 mg/kg [2] [%],inhibition in vivo at 200 mg/kg [2] [%],sedative and myorelaxing activity [3]
"CC(=O)c1c(C)[nH]c(-c2ccccc2)c1N.Cl [Example 1, 4-Acetyl-3-amino-5-methyl-2-phenylpyrrole hydrochloride]",> 1000,23.4,32.5,39,43.8,58.9,76.6,good degree of sedative and myorelaxing activity
"CCOC(=O)c1c(C)[nH]c(-c2ccccc2)c1N.Cl [Example 2, 3-Amino-4-carbethoxy-5-methyl-2-phenylpyrrole hydrochloride]",> 1000,–,–,–,–,36.5,44.3,–
"Cc1[nH]c(-c2ccccc2)c(N)c1C(=O)c1ccccc1 [Example 3, 3-Amino-4-benzoyl-5-methyl-2-phenylpyrrole]",> 1000,–,–,–,–,40.6,53.9,–
"CCOC(=O)c1c[nH]c(-c2ccccc2)c1N.Cl [Example 6, 3-Amino-4-carbethoxy-2-phenylpyrrole hydrochloride]",> 1000,–,–,–,–,25.7,35,–
"CC(=O)c1c(C)[nH]c(-c2ccc(C)cc2)c1N [Example 13, 4-Acetyl-3-amino-5-methyl-2-(p-tolyl)-pyrrole]",> 1000,23.2,31.9,43.5,50.7,69.6,75.4,–
"COc1ccc(-c2[nH]c(C)c(C(C)=O)c2N)cc1 [Example 14, 4-Acetyl-3-amino-2-(p-methoxyphenyl)-5-methylpyrrole]",> 1000,23,31.1,35.1,41.9,55.4,67.6,–
"CCOC(=O)c1c(C)[nH]c(-c2ccc(C)cc2)c1N.Cl [Example 15, 3-Amino-4-carbethoxy-5-methyl-2-(p-tolyl)-pyrrole hydrochloride]",> 1000,–,–,–,29.6,40.8,58.3,good degree of sedative and myorelaxing activity
"CC(=O)c1c(C)[nH]c(-c2ccc(F)cc2)c1N [Example 17, 4-Acetyl-3-amino-2-(p-fluorophenyl)-5-methylpyrrole]",> 1000,–,–,–,–,35.4,47.9,–
"CCOC(=O)c1c(N)c[nH]c1C.Cl [Example 19, 3-Amino-4-carbethoxy-5-methylpyrrole hydrochloride]",500,–,–,–,24.3,45.9,–,–
"Cc1[nH]c(-c2ccccc2)c(N)c1C(=O)C(C)C [Example 20, 3-Amino-4-isobutyryl-5-methyl-2-phenylpyrrole]",> 1000,–,–,–,24.2,37.3,44.9,–
"CCC(=O)c1c(C)[nH]c(-c2ccccc2)c1N [Example 21, 3-Amino-5-methyl-2-phenyl-4-propionylpyrrole]",500,–,–,25.3,36,43,–,–
"COc1ccc(C(=O)c2c(C)[nH]c(-c3ccccc3)c2N)cc1 [Example 24, 3-Amino-4-(p-methoxybenzoyl)-5-methyl-2-phenylpyrrole]",500,–,–,20.6,32.3,42.2,–,–
"CC(=O)c1c(C)[nH]c(-c2ccc(Cl)cc2)c1N [Example 26, 4-Acetyl-3-amino-2-(p-chlorophenyl)-5-methylpyrrole]",> 1000,–,–,29.2,43.1,58.5,71,–
"CC(=O)c1c(C)[nH]c(-c2ccccc2C)c1N [Example 29, 4-Acetyl-3-amino-2-(o-tolyl)-5-methylpyrrole]",> 1000,–,–,–,26.4,33.8,42.6,–
"CNC(=O)c1c(C)[nH]c(-c2ccccc2)c1N.Cl [Example 31, 3-Amino-5-methyl-4-methylcarbamoyl-2-phenylpyrrole hydrochloride]",~1000,–,–,–,26.1,34.8,42,–
"CCCC(=O)c1c(CCC)[nH]c(-c2ccccc2)c1N.Cl [Example 34, 3-Amino-4-butyryl-2-phenyl-5-propylpyrrole hydrochloride]",~1000,–,–,–,39.1,50,61.3,–
"CCCC(=O)c1c(C)[nH]c(-c2ccccc2)c1N.Cl [Example 35, 3-Amino-4-butyryl-5-methyl-2-phenylpyrrole hydrochloride]",500,–,–,–,32.4,42,–,–
"CC(=O)c1c(C)[nH]c(-c2ccccc2)c1N(C)C [Example 43, 4-Acetyl-3-dimethylamino-5-methyl-2-phenylpyrrole]",> 1000,–,–,–,–,25.3,45.6,–
"CC(=O)c1c(C)[nH]c(-c2ccccc2)c1N=Cc1ccc(Cl)cc1 [Example 45, 4-Acetyl-3-(p-chlorobenzylideneamino)-5-methyl-2-phenylpyrrole]",> 1000,–,–,–,23.9,47.9,68.2,–
"CC(=O)c1c(C)[nH]c(-c2ccccc2)c1N=Cc1ccccc1 [Example 46, 4-Acetyl-3-benzylideneamino-5-methyl-2-phenylpyrrole]",> 1000,–,–,23.9,35.2,47.9,69,–
"CC(=O)c1c(N=Cc2ccccc2)c(-c2ccccc2)n(C)c1C [Example 49a, 4-acetyl-3-benzylideneamino-1,5-dimethyl-2-phenylpyrrole]",> 1000,–,–,–,–,31,53.1,–
"CC(=O)c1c(N)c(-c2ccccc2)n(C)c1C [Example 49b, 4-Acetyl-3-amino-1,5-dimethyl-2-phenyl-pyrrole]",> 1000,–,–,–,11,34.3,52.7,–
"CC(=O)c1c(N(C)C)c(-c2ccccc2)n(Cc2ccccc2Cl)c1C [Example 53, 4-Acetyl-1-(o-chlorobenzyl)-5-methyl-3-dimethylamino-2-phenylpyrrole]",> 1000,–,–,–,–,30,37.1,–
"CC(=O)c1c(N(C)C)c(-c2ccccc2)n(Cc2ccc(Cl)cc2)c1C [Example 54, 4-Acetyl-1-(p-chlorobenzyl)-5-methyl-3-dimethylamino-2-phenylpyrrole]",> 1000,–,–,–,–,38,47.6,–
"COC(=O)c1c(C(N)=O)[nH]c(-c2ccccc2)c1N [Example 55, 3-Amino-5-carbamoyl-4-carbomethoxy-2-phenyl-pyrrole]",1000,–,–,–,27.1,41.4,56.3,–
